The text below walks through data of PubChem BioAssay AID328 (DTP/NCI, 2004).

This assay deals with BDF1 mice, P388 leukemia ip, median survival T/C. In words: NCI In Vivo Anticancer Drug Screen. Data for tumor model P388 Leukemia (intraperitoneal) in B6D2F1 (BDF1) mice. The settings on record: endpoint: median survival time, higher = longer survival. The gist of the method:
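Reported as T/C, where T is the survival measurement in dosed animals and C the same measurement in vehicle controls.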

The mark [1] stands for this setting: dose: 25.0 mg/kg/injection, schedule: Q04DX003 (ip), vehicle: saline with Tween-80.
[2] abbreviates: dose: 50.0 mg/kg/injection, schedule: Q04DX003 (ip), vehicle: saline with Tween-80.
Where [3] appears, read: dose: 100.0 mg/kg/injection, schedule: Q04DX003 (ip), vehicle: saline with Tween-80.
The mark [4] stands for this setting: dose: 200.0 mg/kg/injection, schedule: Q04DX003 (ip), vehicle: saline with Tween-80.
[5] abbreviates: dose: 400.0 mg/kg/injection, schedule: Q04DX003 (ip), vehicle: saline with Tween-80.
[6] abbreviates: dose: 25.0 mg/kg/injection, schedule: Q01DX009 (ip), vehicle: saline.
Where [7] appears, read: dose: 50.0 mg/kg/injection, schedule: Q01DX010 (ip), vehicle: saline.
[8] abbreviates: dose: 200.0 mg/kg/injection, schedule: Q04DX003 (ip), vehicle: saline sonified.
Setting [9] is: dose: 400.0 mg/kg/injection, schedule: Q04DX003 (ip), vehicle: saline sonified.
The mark [10] stands for this setting: dose: 25.0 mg/kg/injection, schedule: Q01DX009 (ip), vehicle: saline with Tween-80.
Setting [11] is: dose: 50.0 mg/kg/injection, schedule: Q01DX009 (ip), vehicle: saline with Tween-80.

Several values for one entry are separate records, joined by “and”; a condition that tells them apart may be missing. Equal values may be shown once. Inconclusive results and toxic doses are left out. Residues, ends and D or L forms follow the SMILES beside them. *: point of attachment. Cbz = O=C(OCc1ccccc1)*; OtBu = CC(C)(C)O*

`CCOC(=O)CN1C(=O)C(Cl)=C(Cl)C1=O`: the T/C by setting is: (dose: 3.12 mg/kg/injection, schedule: Q01DX009 (ip), vehicle: Klucel (hydroxypropylcellulose) (HPC)) 95 % of control; (dose: 6.25 mg/kg/injection, schedule: Q01DX009 (ip), vehicle: Klucel (hydroxypropylcellulose) (HPC)) 95 % of control; (dose: 9.2 mg/kg/injection, schedule: Q04DX003 (ip), vehicle: Klucel (hydroxypropylcellulose) (HPC)) 100 % of control; (dose: 14.0 mg/kg/injection, schedule: Q04DX003 (ip), vehicle: Klucel (hydroxypropylcellulose) (HPC)) 91 % of control; (dose: 21.0 mg/kg/injection, schedule: Q04DX003 (ip), vehicle: Klucel (hydroxypropylcellulose) (HPC)) 91 % of control; (dose: 29.0 mg/kg/injection, schedule: Q04DX003 (ip), vehicle: Klucel (hydroxypropylcellulose) (HPC)) 100 % of control.

In the case of `CCCCCCCCCCCCNCc1ccc(O)cc1`, the T/C is 104 % of control under setting [1], 100 % of control under setting [2] and 108 % of control under setting [3].

`C[N+]1(C)N=C([O-])N(c2ccccc2Cl)C1=O`: the T/C was 100 % of control under setting [3], 108 % of control under setting [4] and 99 % of control under setting [5].

Turning to `CCOP(=S)(OCC)OP(=S)(OCC)OCC`, the T/C was 111 % of control (dose: 1.0 mg/kg/injection, schedule: Q04DX003 (ip), vehicle: other); 106 % of control (dose: 2.0 mg/kg/injection, schedule: Q04DX003 (ip), vehicle: other); 106 % of control (dose: 4.0 mg/kg/injection, schedule: Q04DX003 (ip), vehicle: other).

Regarding `CC(=O)Nc1c(Cl)c(Cl)c2c(c1Cl)Cc1cc(Br)ccc1-2`, the T/C was 100 % of control and 113 % of control (dose: 8.25 mg/kg/injection, schedule: Q01DX009 (ip), vehicle: Klucel (hydroxypropylcellulose) (HPC)); 100 % of control and 118 % of control (dose: 12.5 mg/kg/injection, schedule: Q01DX009 (ip), vehicle: Klucel (hydroxypropylcellulose) (HPC)); 100 % of control and 109 % of control (dose: 18.75 mg/kg/injection, schedule: Q01DX009 (ip), vehicle: Klucel (hydroxypropylcellulose) (HPC)); 110 % of control (dose: 25.0 mg/kg/injection, schedule: Q01DX009 (ip), vehicle: Klucel (hydroxypropylcellulose) (HPC)); 90 % of control under setting [6]; 95 % of control (dose: 50.0 mg/kg/injection, schedule: Q01DX009 (ip), vehicle: saline).

For `Cc1cc(=O)n(Cc2ccco2)c(=S)[nH]1`, the T/C is, setting by setting: (dose: 50.0 mg/kg/injection, schedule: Q01DX005 (ip), vehicle: saline with Tween-80) 98 % of control; (dose: 100.0 mg/kg/injection, schedule: Q01DX005 (ip), vehicle: saline with Tween-80) 93 % of control.

Turning to `Nc1ccc(SCc2nc3cccc4c3n2CCC4)cc1`, the T/C runs as follows: under setting [3], 91 % of control; under setting [4], 95 % of control; under setting [5], 95 % of control.

Regarding `O=P(N1CC=CCC1)(N1CC1)N1CC1`, the T/C (dose: 2.2 mg/kg/injection, schedule: Q01DX009 (ip), vehicle: saline) is 115 % of control; the T/C (dose: 3.3 mg/kg/injection, schedule: Q01DX009 (ip), vehicle: saline) is 105 % of control; the T/C (dose: 5.0 mg/kg/injection, schedule: Q01DX009 (ip), vehicle: saline) was 161 % of control; the T/C (dose: 6.25 mg/kg/injection, schedule: Q01DX009 (ip), vehicle: saline) was 190 % of control; the T/C (dose: 7.5 mg/kg/injection, schedule: Q01DX009 (ip), vehicle: saline) is 195 % of control; the T/C (dose: 12.5 mg/kg/injection, schedule: Q01DX009 (ip), vehicle: saline) is 245 % of control and 191 % of control. In addition, the T/C under setting [6] was 87 % of control and 90 % of control.

In the case of `O=C(O)C(O)C(O)C(O)C(O)C(=O)O` (centres undefined), the T/C is, setting by setting: under setting [7], 100 % of control; (dose: 100.0 mg/kg/injection, schedule: Q01DX010 (ip), vehicle: saline) 109 % of control; (dose: 200.0 mg/kg/injection, schedule: Q01DX010 (ip), vehicle: saline) 100 % of control; (dose: 400.0 mg/kg/injection, schedule: Q01DX010 (ip), vehicle: saline) 104 % of control; (dose: 600.0 mg/kg/injection, schedule: Q01DX010 (ip), vehicle: saline) 88 % of control; (dose: 750.0 mg/kg/injection, schedule: Q01DX010 (ip), vehicle: saline) 88 % of control.

In the case of `CCCCCCCCCCCCO[P+](=O)OCCCCCCCCCCCC`, the T/C by setting is: under setting [8], 100 % of control; under setting [9], 100 % of control.

In the case of `COc1cc(NS(C)(=O)=O)ccc1Nc1c2ccccc2nc2c(C)cccc12`, the T/C was 107 % of control (dose: 1.25 mg/kg/injection, schedule: Q01DX009 (ip), vehicle: Klucel (hydroxypropylcellulose) (HPC)); 201 % of control (dose: 2.5 mg/kg/injection, schedule: Q01DX009 (ip), vehicle: Klucel (hydroxypropylcellulose) (HPC)); 250 % of control (dose: 17.0 mg/kg/injection, schedule: Q04DX003 (ip), vehicle: gum acacia); 250 % of control (dose: 25.0 mg/kg/injection, schedule: Q04DX003 (ip), vehicle: gum acacia).

For `CCc1ccc(C2=C(O)C(=O)C(c3ccccc3)=C(O)C2=O)cc1`, the T/C (dose: 12.5 mg/kg/injection, schedule: Q01DX010 (ip), vehicle: saline) was 109 % of control and the T/C under setting [7] is 159 % of control.

As to `Clc1ccc(-c2cc(=[N+]3CCCCC3)ss2)cc1`, the T/C (dose: 6.25 mg/kg/injection, schedule: Q04DX003 (ip), vehicle: saline with Tween-80) is 92 % of control; the T/C (dose: 12.5 mg/kg/injection, schedule: Q04DX003 (ip), vehicle: saline with Tween-80) was 102 % of control and 103 % of control; the T/C under setting [10] was 110 % of control; the T/C under setting [1] was 93 % of control and 94 % of control; the T/C under setting [11] is 110 % of control; the T/C under setting [2] is 98 % of control and 99 % of control and 119 % of control. Also, the T/C under setting [3] was 100 % of control and 102 % of control and 114 % of control.

For `CC(=O)Nc1cc(NC(C)=O)cc([N+](=O)[O-])c1`, the T/C runs as follows: (dose: 25.0 mg/kg/injection, schedule: Q04DX003 (ip), vehicle: saline) 110 % of control; (dose: 50.0 mg/kg/injection, schedule: Q04DX003 (ip), vehicle: saline) 106 % of control; (dose: 100.0 mg/kg/injection, schedule: Q04DX003 (ip), vehicle: saline) 100 % of control; (dose: 200.0 mg/kg/injection, schedule: Q04DX003 (ip), vehicle: saline) 107 % of control; (dose: 400.0 mg/kg/injection, schedule: Q04DX003 (ip), vehicle: saline) 103 % of control.

With `COc1cc2c(cc1O)C(=O)CCC(C(=O)O)=C2`, the T/C runs as follows: under setting [10], 106 % of control; under setting [11], 111 % of control; (dose: 100.0 mg/kg/injection, schedule: Q01DX009 (ip), vehicle: saline with Tween-80) 101 % of control.

For the molecule `CC1=CC(=C2C=CC(=[N+](C)C)C=C2)C=C(C)S1`, the T/C (dose: 3.12 mg/kg/injection, schedule: Q01DX009 (ip), vehicle: distilled water + Tween-80 + alcohol) was 113 % of control; the T/C (dose: 6.25 mg/kg/injection, schedule: Q01DX009 (ip), vehicle: distilled water + Tween-80 + alcohol) was 109 % of control; the T/C (dose: 12.5 mg/kg/injection, schedule: Q01DX009 (ip), vehicle: distilled water + Tween-80 + alcohol) was 114 % of control; the T/C (dose: 25.0 mg/kg/injection, schedule: Q01DX009 (ip), vehicle: distilled water + Tween-80 + alcohol) was 97 % of control.

Take `CNC1C(O)C(OC2C(N)CC(N)C(OC3OC(CN)C(O)C(O)C3O)C2O)OCC1(C)O` (centres undefined): the T/C (dose: 100.0 mg/kg/injection, schedule: Q01DX009 (ip), vehicle: saline) was 100 % of control; the T/C (dose: 200.0 mg/kg/injection, schedule: Q01DX009 (ip), vehicle: saline) was 91 % of control; the T/C (dose: 400.0 mg/kg/injection, schedule: Q01DX009 (ip), vehicle: saline) was 108 % of control.

Regarding `CCC(C)C(NC(=O)OCc1ccccc1)C(=O)NC(C(=O)NC(CCC(=O)OC(C)(C)C)C(=O)OC)C(C)C` (stereo not drawn) (Cbz-Ile-Val-Glu(OtBu)-OMe; configuration not given here), the T/C is 90 % of control (dose: 100.0 mg/kg/injection, schedule: Q04DX003 (ip), vehicle: saline sonified); 90 % of control under setting [8]; 95 % of control under setting [9].

On to `CCCCCCCCCCC(=O)[O][Sn]([CH](C)C)([CH](C)C)[CH](C)C`, for which the T/C runs as follows: (dose: 12.5 mg/kg/injection, schedule: Q01DX009 (ip), vehicle: saline + Tween-80 + alcohol) 109 % of control; (dose: 25.0 mg/kg/injection, schedule: Q01DX009 (ip), vehicle: saline + Tween-80 + alcohol) 119 % of control.
